Test results taken from patent publication US10681909B2, “Herbicidal triazoles” (FMC Corporation, priority 2014, dated 2020).

Assays:
morningglory = assay: Test A postemergence; assay type: in vivo, Ipomoea spp.; conditions: Ipomoea, post-emergence, 240 h, 0 to 100 scale (0 no effect, 100 complete control), approx. 10 d, read-out: Plant response rating, Morningglory
In short: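 Plant seeds in loam soil blended with sand, then apply test chemical preemergence as a directed soil spray; in parallel, spray potted seedlings (one- to two-leaf, 2 to 10 cm) postemergence. Both treatments use a non-phytotoxic solvent mixture with surfactant.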

foxtail, giant = assay: Test C preemergence; assay type: in vivo, Setaria faberii; conditions: for Plant response rating (scale of 0 to 100 where 0 is no effect and 100 is complete control): Foxtail, Giant, preemergence; for Foxtail, Giant plant response rating (0 to 100): Preemergence, visual rating after 13 to 15 d
Description: (§1) Seeds of plant species selected from blackgrass (Alopecurus myosuroides), ryegrass, Italian (Italian ryegrass, Lolium multiflorum), wheat (winter wheat, Triticum aestivum), galium (catchweed bedstraw, Galium aparine), corn (Zea mays), crabgrass, large (large crabgrass, Digitaria sanguinalis), foxtail, giant, (giant foxtail, Setaria faberii), johnsongrass (Sorghum halepense), lambsquarters (Chenopodium album), morningglory (Ipomoea coccinea), nutsedge, yellow (yellow nutsedge, Cyperus esculentus), pigweed (Amaranthus retroflexus), ragweed (common ragweed, Ambrosia elatior), soybean (Glycine max), barnyardgrass (Echinochloa crus-galli), oilseed rape (Brassica napus), waterhemp (common waterhemp, Amaranthus rudis), and velvetleaf (Abutilon theophrasti) were planted into a blend of loam soil and sand and treated preemergence with test chemicals formulated in a non-phytotoxic solvent mixture which included a surfactant. At the same time, plants selected from these crop and weed species and also chickweed (common chickweed, Stellaria media), oat, wild (wild oat, Avena fatua), and kochia (Kochia scoparia), were planted in pots containing Sunshine Redi-Earth® planting medium comprising spaghnum peat moss, vermiculite, starter nutrients and dolomitic limestone and treated with postemergence applications of test chemicals formulated in the same manner. Plants ranged in height from 2 to 18 cm (1- to 4-leaf stage) for postemergence treatments. […] A dash (-) response means no test result.

pigweed = assay: Test C preemergence; assay type: in vivo, Amaranthus retroflexus; conditions: for Plant response rating (scale of 0 to 100 where 0 is no effect and 100 is complete control): Pigweed, preemergence; for Pigweed plant response rating (0 to 100): Preemergence, visual rating after 13 to 15 d
Description: as §1

bluegrass = assay: Test D preemergence; assay type: in vivo, Poa annua; conditions: for Plant response rating: Bluegrass: scale 0 to 100; for Plant response rating (0 to 100), Bluegrass: 16 g ai/ha, 0 is no effect, 100 is complete control
Description: (§2) Seeds of plant species selected from bluegrass (annual bluegrass, Poa annua), blackgrass (Alopecurus myosuroides), canarygrass (Phalaris minor), chickweed (common chickweed, Stellaria media), galium (catchweed bedstraw, Galium aparine), bromegrass, down (downy bromegrass, Bromus tectorum), Russian thistle (Salsola kali), field poppy (Papaver rhoeas), field violet (Viola arvensis), foxtail, green (green foxtail, Setaria viridis), deadnettle (henbit deadnettle, Lamium amplexicaule), ryegrass, Ital. (Italian ryegrass, Lolium multiflorum), kochia (Kochia scoparia), lambsquarters (Chenopodium album), oilseed rape (Brassica napus), pigweed (Amaranthus retroflexus), chamomile (scentless chamomile, Matricaria inodora), speedwell (bird's-eye speedwell, Veronica persica), barley, spring (spring barley, Hordeum vulgare), wheat, spring (spring wheat, Triticum aestivum), buckwheat, wild (wild buckwheat, Polygonum convolvulus), wild mustard (Sinapis arvensis), oat, wild (wild oat, Avena fatua), radish, wild (wild radish, Raphanus raphanistrum), […]), barley, winter (winter barley, Hordeum vulgare), and wheat, winter (winter wheat, Triticum aestivum) were planted into a silt loam soil and treated preemergence with test chemicals formulated in a non-phytotoxic solvent mixture which included a surfactant. At the same time, these species were planted in pots containing Sunshine Redi-Earth® planting medium comprising spaghnum peat moss, vermiculite, starter nutrients and dolomitic limestone and treated with postemergence applications of the test chemicals formulated in the same manner. Plants ranged in height from 2 to 18 cm (1- to 4-leaf stage). Treated plants and controls were maintained in a controlled growth environment for 14 to 21 d after which time all species were compared to controls and visually evaluated. […] A dash (-) response means no test result.

lambsquarters = assay: Test D preemergence; assay type: in vivo, Chenopodium album; conditions: for Plant response rating: Lambsquarters: scale 0 to 100; for Plant response rating (0 to 100), Lambsquarters: 16 g ai/ha, 0 is no effect, 100 is complete control
Description: as §2

oilseed rape = assay: Test D preemergence; assay type: in vivo, Brassica napus; conditions: for Plant response rating: Oilseed Rape: scale 0 to 100; for Plant response rating (0 to 100), Oilseed Rape: 16 g ai/ha, 0 is no effect, 100 is complete control
Description: as §2

buckwheat, wild = assay: Test D preemergence; assay type: in vivo, Polygonum convolvulus; conditions: for Plant response rating: Buckwheat, Wild: scale 0 to 100; for Plant response rating (0 to 100), Buckwheat, Wild: 16 g ai/ha, 0 is no effect, 100 is complete control
Description: as §2

kochia = assay: Test D postemergence; assay type: in vivo, Kochia scoparia; conditions: scale 0 to 100
Description: as §2

ragweed = assay: Test A postemergence; assay type: in vivo, Ambrosia elatior; conditions: 0 to 100 scale (0 no effect, 100 complete control), approx. 10 d
In short: (§3)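 Ratings reflect visual injury after ~10 d in greenhouse, 0 = no effect, 100 = complete control. Postemergence treatment was applied to one- to two-leaf seedlings; preemergence treatment was a directed soil spray at planting.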

blackgrass = assay: Test A postemergence; assay type: in vivo, Alopecurus myosuroides; conditions: 0 to 100 scale (0 no effect, 100 complete control), approx. 10 d
In short: as §3

Structure (SMILES)	Plant response rating (scale of 0 to 100 where 0 is no effect and 100 is complete control) (foxtail, giant; 125 g ai/ha)	Plant response rating (scale of 0 to 100 where 0 is no effect and 100 is complete control) (foxtail, giant; 250 g ai/ha)	Foxtail, Giant plant response rating (0 to 100) (foxtail, giant; 31 g ai/ha)	Foxtail, Giant plant response rating (0 to 100) (foxtail, giant; 62 g ai/ha)	Plant response rating (scale of 0 to 100 where 0 is no effect and 100 is complete control) (pigweed; 125 g ai/ha)	Plant response rating (scale of 0 to 100 where 0 is no effect and 100 is complete control) (pigweed; 250 g ai/ha)	Pigweed plant response rating (0 to 100) (pigweed; 31 g ai/ha)	Plant response rating: Bluegrass (bluegrass; 31 g ai/ha)	Plant response rating: Bluegrass (bluegrass; 62 g ai/ha)	Plant response rating: Bluegrass (bluegrass; 125 g ai/ha)	Plant response rating: Lambsquarters (lambsquarters; 62 g ai/ha)	Plant response rating: Lambsquarters (lambsquarters; 125 g ai/ha)	Plant response rating: Oilseed Rape (oilseed rape; 62 g ai/ha)	Plant response rating: Oilseed Rape (oilseed rape; 125 g ai/ha)	Plant response rating: Buckwheat, Wild (buckwheat, wild; 31 g ai/ha)	Plant response rating: Buckwheat, Wild (buckwheat, wild; 62 g ai/ha)	Plant response rating: Buckwheat, Wild (buckwheat, wild; 125 g ai/ha)	Plant response rating: Kochia (kochia; 31 g ai/ha)	Plant response rating: Kochia (kochia; 62 g ai/ha)	Plant response rating: Kochia (kochia; 125 g ai/ha)	other results
CCOc1nc(-c2ccc(F)cc2)nn1Cc1ccnc(C(F)(F)F)c1 [Compound 8, 4-[[5-ethoxy-3-(4-fluorophenyl)-1H-1,2,4-triazol-1-yl]methyl]-2-(trifluoromethyl)pyridine]	100	100	100	100	100	100	100	70	70	100	100	100	60	100	35	100	100	75	80	85	pest or weed control at 125 g/ha (morningglory; 125 g ai/ha): 90%; pest or weed control at 500 g/ha (morningglory; 500 g ai/ha): 100%; Pigweed plant response rating (0 to 100) (pigweed; 62 g ai/ha): 100; Plant response rating: Bluegrass (bluegrass; 250 g ai/ha): 100; Plant response rating: Lambsquarters (lambsquarters; 250 g ai/ha): 100; Plant response rating: Oilseed Rape (oilseed rape; 250 g ai/ha): 100; Plant response rating: Buckwheat, Wild (buckwheat, wild; 250 g ai/ha): 100; Plant response rating: Kochia (kochia; 250 g ai/ha): 80
FC(F)(F)COc1nc(-c2ccccc2)nn1Cc1ccnc(C(F)(F)F)c1 [Compound 24]	98	100	80	95	100	100	100	75	80	98	80	85	55	70	55	60	70	90	90	90	Plant response rating, Ragweed (ragweed; 125 g ai/ha): 50; Plant response rating, Ragweed (ragweed; 500 g ai/ha): 70; Plant response rating, Blackgrass (blackgrass; 125 g ai/ha): 40; Plant response rating, Blackgrass (blackgrass; 500 g ai/ha): 60; Pigweed plant response rating (0 to 100) (pigweed; 62 g ai/ha): 100; Plant response rating (0 to 100), Bluegrass (bluegrass): 20; Plant response rating (0 to 100), Lambsquarters (lambsquarters): 65; Plant response rating (0 to 100), Oilseed Rape (oilseed rape): 15; Plant response rating (0 to 100), Buckwheat, Wild (buckwheat, wild): 50; Plant response rating: Kochia (kochia; 16 g ai/ha): 85
CCOc1nc(-c2ccccc2)nn1Cc1ccnc(C(F)(F)F)c1 [Compound 27]	100	100	100	100	100	100	100	55	85	100	95	95	60	80	80	70	85	95	95	100	Plant response rating, Ragweed (ragweed; 125 g ai/ha): 50; Plant response rating, Ragweed (ragweed; 500 g ai/ha): 70; Plant response rating, Blackgrass (blackgrass; 125 g ai/ha): 70; Plant response rating, Blackgrass (blackgrass; 500 g ai/ha): 80; Pigweed plant response rating (0 to 100) (pigweed; 62 g ai/ha): 100; Plant response rating (0 to 100), Bluegrass (bluegrass): 20; Plant response rating (0 to 100), Lambsquarters (lambsquarters): 85; Plant response rating (0 to 100), Oilseed Rape (oilseed rape): 5; Plant response rating (0 to 100), Buckwheat, Wild (buckwheat, wild): 65; Plant response rating: Kochia (kochia; 16 g ai/ha): 85
COc1nc(-c2ccc(Cl)cc2)nn1Cc1ccnc(C(F)(F)F)c1 [Compound 28]								35	45	85	85	95	15	15	65	75	95	85	85	95	Plant response rating, Ragweed (ragweed; 125 g ai/ha): 20; Plant response rating, Ragweed (ragweed; 500 g ai/ha): 30; Plant response rating, Blackgrass (blackgrass; 125 g ai/ha): 10; Plant response rating, Blackgrass (blackgrass; 500 g ai/ha): 40; Plant response rating (0 to 100), Bluegrass (bluegrass): 25; Plant response rating (0 to 100), Lambsquarters (lambsquarters): 75; Plant response rating (0 to 100), Oilseed Rape (oilseed rape): 10; Plant response rating (0 to 100), Buckwheat, Wild (buckwheat, wild): 60; Plant response rating: Kochia (kochia; 16 g ai/ha): 85
Fc1ccc(-c2nc(OCC(F)(F)F)n(Cc3ccnc(C(F)(F)F)c3)n2)cc1 [Compound 30]	100	100	98	100	100	100	100	75	100	100	95	95	35	55	70	85	85	90	90	95	Plant response rating, Ragweed (ragweed; 125 g ai/ha): 40; Plant response rating, Ragweed (ragweed; 500 g ai/ha): 70; Plant response rating, Blackgrass (blackgrass; 125 g ai/ha): 30; Plant response rating, Blackgrass (blackgrass; 500 g ai/ha): 80; Pigweed plant response rating (0 to 100) (pigweed; 62 g ai/ha): 100; Plant response rating (0 to 100), Bluegrass (bluegrass): 75; Plant response rating (0 to 100), Lambsquarters (lambsquarters): 85; Plant response rating (0 to 100), Oilseed Rape (oilseed rape): 10; Plant response rating (0 to 100), Buckwheat, Wild (buckwheat, wild): 70; Plant response rating: Kochia (kochia; 16 g ai/ha): 85
